The record followed here is patent US7956053B2, “Inhibitors of tyrosine kinases” (Novartis AG, priority 2002, dated 2011).

For one test, the target named is KDR (Homo sapiens, UniProt P35968). The test can be described thus: Enzymatic KDR in vitro inhibition. In kind it is biochemical. The procedure: Test for activity against VEGF-receptor tyrosine kinase. The test is conducted using Flt-1 VEGF-receptor tyrosine kinase. The detailed procedure is as follows: 30 μL kinase solution (10 ng of the kinase domain of Flt-1, Shibuya et al., Oncogene 5, 519-24 [1990]) in 20 mM Tris.HCl pH 7.5, 3 mM manganese dichloride (MnCl2), 3 mM magnesium chloride (MgCl2), 10 μM sodium vanadate, 0.25 mg/mL polyethylenglycol (PEG) 20000, 1 mM dithiothreitol and 3 μg/μL poly(Glu,Tyr) 4:1 (Sigma, Buchs, Switzerland), 8 μM [^33P]-ATP (0.2 μCi), 1% DMSO, and 0 to 100 μM of the compound to be tested are incubated together for 10 minutes at room temperature. The reaction is then terminated by the addition of 10 μL 0.25 M ethylenediaminetetraacetate (EDTA) pH 7. Using a multichannel dispenser (LAB SYSTEMS, USA), an aliquot of 20 μL is applied to a PVDF (=polyvinyl difluoride) Immobilon P membrane (Millipore, Bedford, USA), through a Gibco-BRL microtiter filter manifold and connected to a vacuum. Following complete elimination of the liquid, the membrane is washed 4 times successively in a bath containing 0.5% phosphoric acid (H3PO4) and once with ethanol, incubated for 10 minutes each time while shaking, then mounted in a Hewlett Packard TopCount Manifold and the radioactivity measured after the addition of 10 μL Microscint® (β-scintillation counter liquid). IC50-values are determined by linear regression analysis of the percentages for the inhibition of each compound in at least four concentrations (as a rule 0.01, 0.1, 1.0 and 10 μmol).
(§1) Enzymatic (c-Abl, KDR, Flt3) in vitro inhibition data are presented as % inhibition at 10 μM. The measurements are made as described above in the general description.

The next test has as its target T1, c-Abl (Homo sapiens, UniProt P00519).
T1 construct: The His-tagged kinase domain of c-Abl is cloned and expressed in the baculovirus/Sf9 system; His; made in house; host or cells: baculovirus/Sf9
T1 sequence (P00519 242-493 limits assumed): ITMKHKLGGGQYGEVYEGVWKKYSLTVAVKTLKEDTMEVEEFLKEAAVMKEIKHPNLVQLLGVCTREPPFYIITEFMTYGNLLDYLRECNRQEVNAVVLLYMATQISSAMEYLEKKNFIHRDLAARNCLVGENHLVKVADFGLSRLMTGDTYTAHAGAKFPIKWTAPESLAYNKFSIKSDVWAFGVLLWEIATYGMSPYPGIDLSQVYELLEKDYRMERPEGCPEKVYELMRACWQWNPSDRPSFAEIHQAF
The experiment in a line: Test for activity against c-Abl protein tyrosine kinase (filter binding assay). In kind it is biochemical. On the procedure: Test for activity against c-Abl protein tyrosine kinase. The test is conducted as a filter binding assay as follows: The His-tagged kinase domain of c-Abl is cloned and expressed in the baculovirus/Sf9 system as described by Bhat et al., J Biol. Chem. 272, 16170-5 (1997). A protein of 37 kD (c-Abl kinase) is purified by a two-step procedure over a Cobalt metal chelate column followed by an anion exchange column with a yield of 1-2 mg/L of Sf9 cells. The purity of the c-Abl kinase is >90% as judged by SDS-PAGE after Coomassie blue staining. The assay contains: c-Abl kinase (50 ng), 20 mM Tris.HCl, pH 7.5, 10 mM MgCl2, 10 μM Na3VO4, 1 mM DTT and 0.06 μCi/assay [γ^33 P]-ATP (5 μM ATP) using 30 μg/mL poly-Ala,Glu,Lys,Tyr-6:2:5:1 (Poly-AEKY, Sigma P1152) in the presence of 1% DMSO, total volume of 30 μL. Reactions are terminated by adding 10 μL of 250 mM EDTA, and 30 μL of the reaction mixture is transferred onto Immobilon-PVDF membrane (Millipore, Bedford, Mass., USA) previously soaked for 5 min with methanol, rinsed with water, then soaked for 5 min with 0.5% H3PO4 and mounted on vacuum manifold with disconnected vacuum source. After spotting all samples, vacuum is connected and each well rinsed with 200 μL 0.5% H3PO4. Membranes are removed and washed on a shaker with 0.5% H3PO4 (4 times) and once with ethanol. Membranes are counted after drying at ambient temperature, mounting in Packard TopCount 96-well frame, and addition of 10 μL/well of Microscint™ (Packard).
as §1

KDR, sequence (P35968 20-1356): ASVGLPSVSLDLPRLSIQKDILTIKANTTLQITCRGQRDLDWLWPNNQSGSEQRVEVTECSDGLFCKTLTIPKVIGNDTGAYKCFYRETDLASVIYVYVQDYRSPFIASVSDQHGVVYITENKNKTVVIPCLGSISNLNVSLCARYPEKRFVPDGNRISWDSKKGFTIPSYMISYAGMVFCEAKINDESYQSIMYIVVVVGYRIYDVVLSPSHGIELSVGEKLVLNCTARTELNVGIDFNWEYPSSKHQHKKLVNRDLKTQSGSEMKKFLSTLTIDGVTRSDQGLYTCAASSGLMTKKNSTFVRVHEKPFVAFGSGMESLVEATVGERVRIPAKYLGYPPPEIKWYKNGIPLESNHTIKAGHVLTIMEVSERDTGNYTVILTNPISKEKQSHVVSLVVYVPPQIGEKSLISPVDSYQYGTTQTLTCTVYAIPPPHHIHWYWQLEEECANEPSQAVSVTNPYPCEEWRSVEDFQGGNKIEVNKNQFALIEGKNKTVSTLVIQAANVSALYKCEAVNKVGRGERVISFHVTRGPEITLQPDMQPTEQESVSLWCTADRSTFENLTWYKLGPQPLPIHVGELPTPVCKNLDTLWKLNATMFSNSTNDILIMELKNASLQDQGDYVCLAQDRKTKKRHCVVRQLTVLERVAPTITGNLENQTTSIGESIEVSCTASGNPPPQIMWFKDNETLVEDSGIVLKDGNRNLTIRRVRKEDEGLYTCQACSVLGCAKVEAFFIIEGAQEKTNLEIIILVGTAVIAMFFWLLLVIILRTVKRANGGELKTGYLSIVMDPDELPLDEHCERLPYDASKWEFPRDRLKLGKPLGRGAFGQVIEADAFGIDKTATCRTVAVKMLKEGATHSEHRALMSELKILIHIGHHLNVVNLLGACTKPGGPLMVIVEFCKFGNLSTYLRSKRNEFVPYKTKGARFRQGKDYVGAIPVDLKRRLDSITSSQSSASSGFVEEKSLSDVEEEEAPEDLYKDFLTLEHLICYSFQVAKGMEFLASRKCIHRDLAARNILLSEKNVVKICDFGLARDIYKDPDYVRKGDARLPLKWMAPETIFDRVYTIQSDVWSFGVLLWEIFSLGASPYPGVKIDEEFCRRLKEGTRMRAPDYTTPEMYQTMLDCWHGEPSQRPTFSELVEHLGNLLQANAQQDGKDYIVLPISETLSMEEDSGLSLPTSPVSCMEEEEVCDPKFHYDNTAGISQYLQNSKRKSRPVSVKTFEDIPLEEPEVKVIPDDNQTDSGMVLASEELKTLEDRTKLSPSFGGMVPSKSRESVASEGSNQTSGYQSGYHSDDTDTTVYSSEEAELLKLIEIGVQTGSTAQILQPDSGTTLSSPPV

For “4-Methyl-N-[(5-methylpyrazinyl)methyl]-3-[[4-(3-pyridinyl)-2-pyrimidinyl]amino]benzamide [Example 55]”, the “KDR %@10 μM” value on KDR (% inhibition at 10 μM) came to 54%. Moreover, the “Abl %@10 μM” value on c-Abl (% inhibition at 10 μM) is recorded as 43%.
Usually inhibition stands for how much of the control response was suppressed. Lower therefore signals a response near the control. As for `Cc1ccc(C(=O)NCc2ccco2)cc1Nc1nccc(-c2cccnc2)n1` [Example 1, N-(2-Furanylmethyl)-4-methyl-3-[[4-(3-pyridinyl)-2-Pyrimidinyl]amino]benzamide], the inhibition at 10 µM at KDR is 57%; on c-Abl, 51%.
For `Cc1ccc(C(=O)Nc2ccc(CN3CCN(C)CC3)cc2)cc1Nc1nccc(-c2cccnc2)n1` [Example 2, N-[4-Methyl-3-[[4-(3-pyridinyl)-2-pyrimidinyl]amino]benzoyl]-4-[(4-methyl-1-piperazinyl)methyl]benzeneamine] the same measures were 73% and 97%.
Take `Cc1ccc(C(=O)N2CCN(c3ccccn3)CC2)cc1Nc1nccc(-c2cccnc2)n1` [Example 3, 1-[4-Methyl-3-[[4-(3-pyridinyl)-2-pyrimidinyl]amino]benzoyl]-4-(2-pyridinyl)piperazine]: the inhibition at 10 µM on KDR stood at 71%; on c-Abl it was 66%.
The like results for `Cc1ccc(C(=O)NCCc2ccccn2)cc1Nc1nccc(-c2cccnc2)n1` [Example 4, 4-Methyl-N-[2-(2-pyridinyl)ethyl]-3-[[4-(3-pyridinyl)-2-pyrimidinyl]amino]-benzamide] were, in that order, 46% and 77%.
The like results for `Cc1ccc(C(=O)NC2CCN(Cc3ccccc3)CC2)cc1Nc1nccc(-c2cccnc2)n1` [Example 5, 4-Methyl-N-[1-(phenylmethyl)-4-piperidinyl]-3-[[4-(3-pyridinyl)-2-pyrimidinyl]amino]benzamide] were, in that order, 60% and 71%.
For `Cc1ccc(C(=O)NCc2ccncc2)cc1Nc1nccc(-c2cccnc2)n1` [Example 6, 4-Methyl-N-(4-pyridinylmethyl)-3-[[4-(3-pyridinyl)-2-pyrimidinyl]amino]benzamide] the same measures were 56% and 51%.
`Cc1ccc(C(=O)NCCc2cccn2C)cc1Nc1nccc(-c2cccnc2)n1` [Example 7, 4-Methyl-N-[2-(1-methyl-1H-pyrrol-2-yl)ethyl]-3-[[4-(3-pyridinyl)-2-pyrimidinyl]amino]benzamide]: the inhibition at 10 µM was determined as 45% against KDR and 72% on c-Abl.
For `COc1ccc(CNC(=O)c2ccc(C)c(Nc3nccc(-c4cccnc4)n3)c2)cc1` [Example 8, N-[(4-Methoxyphenyl)methyl]-4-methyl-3-[[4-(3-pyridinyl)-2-pyrimidinyl]amino]benzamide] the same measures were 81% and 70%.
As to `Cc1ccc(C(=O)NCC(C)C)cc1Nc1nccc(-c2cccnc2)n1` [Example 9, 4-Methyl-N-(2-methylpropyl)-3-[[4-(3-pyridinyl)-2-pyrimidinyl]amino]benzamide], the inhibition at 10 µM came to 39% against KDR and 44% at c-Abl.
As to `Cc1ccc(C(=O)NCCN2CCOCC2)cc1Nc1nccc(-c2cccnc2)n1` [Example 10, 4-Methyl-N-(2-morpholinoethyl)-3-[[4-(3-pyridinyl)-2-pyrimidinyl]amino]-benzamide], the inhibition at 10 µM on KDR turned out to be 48%; at c-Abl, 57%.
For `Cc1ccc(C(=O)NCC2CCCO2)cc1Nc1nccc(-c2cccnc2)n1` (stereo not shown) [Example 11, 4-Methyl-3-[[4-(3-pyridinyl)-2-pyrimidinyl]amino]-N-[(tetrahydro-2-furanyl)methyl]benzamide] the same measures were 41% and 53%.
The molecule `Cc1ccc(C(=O)NCc2ccc(S(N)(=O)=O)cc2)cc1Nc1nccc(-c2cccnc2)n1` [Example 29, N-[[4-(Aminosulfonyl)phenyl]methyl]-4-methyl-3-[[4-(3-pyridinyl)-2-pyrimidinyl]amino]benzamide] showed an inhibition at 10 µM on c-Abl of 78%.
